From patent US10532066B2, “Surfactant lipids, compositions thereof, and uses thereof” (National Jewish Health, priority 2007, dated 2020)

How the values were obtained:
[1] = tested on: MAPK, IkBα and MKP-1 in differentiated U937 cells; test: Western blot of LPS induced MAPK and IkBα phosphorylation and MKP-1 expression; format: cell-based, human; settings: LPS 10 ng/ml, liposomes 200 μg/ml
Description: FIG. 4. POPG inhibits LPS induced MAPK and IkBα phosphorylation and MKP-1 expression. POPG liposomes (200 μg/ml) were added to monolayer cultures of differentiated U937 cells that received either no treatment or 10 ng/ml LPS. After incubating for the indicated time, cells were lysed using lysis buffer containing detergent, protease inhibitors and phosphatase inhibitors. Aliquots with 15 μg of protein from lysates were separated by SDS-PAGE and transferred onto nitrocellulose membranes. The amount of phosphorylation was detected using phospho-specific antibodies to p38MAPK, p42/p44 ERK, p46-p54 INK and phosphorylated IkBα. To determine equal loading of proteins between samples, the membranes were probed with rabbit polyclonal p46 INK, p42/p44 ERK, p38MAPK and IkBα antibodies. The expression of MKP-1 was detected with a polyclonal MKP-1 antibody.
FIG. 5. Quantification of POPG inhibition of LPS induced signaling. Western blot analysis as described in FIG. 4 was performed three or four times on separate samples and the intensity of phospho-p38, phospho-IkBα, phosphoERK, phospho JNK, phospho IkBα, total IkBα and MKP-1 was calculated using NIH Image J1.34 software.
FIG. 6. Molecular specificity in POPG action. Liposomes composed of POPC, DPPG or POPG were added to monolayer cultures of differentiated U937 cells that received either no treatment or 10 ng/ml LPS, as indicated. After 30 or 60 min cells were lysed and 15 μg of cellular protein from cultures was separated by SDS-PAGE and transferred onto nitrocellulose membranes. Phosphorylated and nonphosphorylated proteins were detected as described in FIG. 4.
FIG. 7. Comparative quantification of lipid dependent antagonism of LPS signaling. Western blot analysis was performed as described in FIG. 6 in three independent experiments. The intensity of the phosphorylated (p38, ERK, JNK and IkBα) and nonphosphorylated (total IkBα and MKP-1) proteins of interest was measured using NIH Image 0.1.34 software. Significance—*p<0.05, ** p<0.01.
Monolayers of unstimulated or stimulated macrophages were lysed on ice with 250 μl of ice-cold lysis buffer [50 mM Tris.HCl, pH 8.0, containing 137 mM NaCl, 10% (vol/vol) glycerol, 1% (vol/vol) Nonidet P-40, 1 mM NaF, 10 μg/ml leupeptin, 10 μg/ml aprotinin, 2 mM Na3VO4, and 1 mM phenylmethylsulfonyl fluoride (29). Insoluble nuclear material was pelleted by centrifugation at 14,000×g for 10 min at 4° C. and the supernatants were collected. 15 μg of protein from lysates was separated by SDS-PAGE and transferred onto nitrocellulose membranes (30). The blots were then washed in Tris-Tween-buffered saline [TTBS, 20 mM Tris-HCl buffer, pH 7.6, containing 137 mM NaCl and 0.05% (vol/vol) Tween 20], blocked with 5% (wt/vol) nonfat dry milk for 1 hour, and probed according to the method described by Towbin et. al. (30) with phospho-specific antibodies to p46-p54 JNK, p42/p44 ERK, and p38MAPK, or IkBα or with a polyclonal MKP-1 or IkBα antibodies in 5% (wt/vol) BSA dissolved in TTBS. With the use of horseradish peroxidase-conjugated secondary anti-rabbit or anti-mouse antibody, bound antibodies were detected by enhanced chemiluminescence (ECL plus, Amersham Biosciences, Piscataway, N.J.). To determine loading of proteins between samples, the membranes were probed with rabbit polyclonal p46 JNK, p42/p44 ERK, and p38MAPK antibodies.

[2] = tested on: Respiratory Syncytial Virus (RSV); test: RSV-induced cytokine production in BEAS2B cells; format: cell-based; settings: RSV multiplicity 3, 48 h, lipid 200 ug/ml
[3] = tested on: Respiratory Syncytial Virus (RSV); test: RSV-induced cytokine production in NHBE cells; format: cell-based; settings: RSV multiplicity 3, 48 h, lipid 200 ug/ml
[4] = tested on: Respiratory Syncytial Virus (RSV); test: Cytopathic effects of RSV upon BEAS2B cells (photomicrography); format: cell-based; settings: multiplicity 3, 72 h, lipid 200 ug/ml
Description: (§1) Monolayers of BEAS2B cells were infected with RSV at a multiplicity of 3 for 72 h. Infections were performed on cells in either the absence or the presence of POPG (200 ug/ml). The cell monolayers were photographed at a magnification of 200×. Controls consisted of no viral challenge in either the presence or absence of POPG as indicated.
(§2) Monolayers of BEAS2B cells were infected with RSV at a multiplicity of 3 for 72 h. Infections were performed on cells in either the absence (b) or the presence (c,f) of POPG (200 ug/ml) and POPC (200 ug/ml) as indicated. Cells were photographed at a magnification of 200×. Controls (a,d,e) consisted of cell layers either not exposed to virus or exposed to POPG, and POPC in the absence of virus as indicated.
Monolayers of BEAS2B cells were infected with RSV at a multiplicity of 0.5-1, in either the presence or absence of 200 ug/ml POPG, or 200 ug/ml POPC, as indicated.
Monolayers of BEAS2B cells were either uninfected (CONL) or challenged with RSV at a multiplicity of 0.5/cell (RSV). Where indicated in the FIG. 44, RSV challenged cells were also treated with POPC (200 ug/ml) or POPG (200 ug/ml) liposomes; or POPG nanodiscs (nanoPOPG) at concentrations ranging from 100-300 ug/ml. Selected panels and fields are also shown at 400× magnification in FIG. 45.
Where indicated in FIG. 46, RSV challenged cells were also treated with nanodisc forms of dipalmitoyl-phosphatidylcholine (nanoDPPC), palmitoyl-oleoyl-phosphatidylcholine (nanoPOPC), or dioleoyl-phosphatidylcholine (nanoDOPC), dipalmitoyl-phosphatidylglycerol (nanoDPPG), dimyristoyl-phosphatidylglycerol (nanoDMPG), or dioleoyl-phosphatidylglycerol (nanoDOPG). At 72 h after infection, the cultures were examined by photomicrography at a magnification of 200×.

[5] = tested on: Respiratory Syncytial Virus (RSV); test: Cytopathic effects of RSV upon NHBE cells (photomicrography); format: cell-based; settings: multiplicity 3, 72 h, lipid 200 ug/ml
Description: as §1, with “NHBE” for “BEAS2B”
as §2, with “NHBE” for “BEAS2B”
Monolayers of normal human bronchial epithelial cells were infected with RSV at a multiplicity of 0.5-1, in either the presence or absence of 200 ug/ml POPG, or 200 ug/ml POPC, as indicated.

RSV = RSV plaque progression in Hep2 monolayers, lipid in agar overlay; format: cell-based, Respiratory Syncytial Virus (RSV); settings: lipid in agar overlay 5 hours after virus, POPG 200-500 ug/ml, POPC 500 ug/ml, 5 days
Description: Monolayers of Hep2 cells were subjected to RSV infection at levels that produce ca 100 plaques per well in quantitative plaque assays. The virus was incubated with the cells for 5 hours prior to agar overlay. The agar overlays contained either no additions, or POPG (200-500 ug/ml) or POPC (500 ug/ml).
The effects of POPG upon plaque formation as shown in Panel a of FIG. 39 were quantified in 3 independent experiments and are presented in this figure. The left panel of FIG. 40 provides the numbers of definite, and minute indefinite plaques formed in the absence and presence of POPG (200-500 ug/ml) as indicated. The right panel of FIG. 40 provides the numbers of definite plaques observed in the absence and presence of either POPG or POPC (200-500 ug/ml) as indicated.

CCCCCCCC/C=C\CCCCCCCC(=O)O[C@H](COC(=O)CCCCCCCCCCCCCCC)COP(=O)([O-])OCC[N+](C)(C)C [POPC, palmitoyl-oleoyl-phosphatidylcholine, reference compound]
LPS-induced MKP-1 expression [1]: neither POPC nor DPPG exerted a significant effect | LPS-induced phosphorylation of p38, ERK, JNK and IkBα ([1]; 15-60 min): neither POPC nor DPPG exerted a significant effect | IL-6 production [2]: not | IL-6 production [3]: not | cytopathic effects of RSV [4]: not | cytopathic effects of RSV [5]: not | progression of RSV infection (plaques) (RSV): bullseye plaques
